# Where two headings read alike, the source gives them in different places.
# Experiments:
# Hep G2 cells = assay: ADP-ribose quantitative analysis (ELISA) in cancer cells; type: cell-based; settings: 8 μM ADP-ribose, 24 hours, P<0.001
# Experimental: After culturing, the culture medium was removed, the cells were washed with phosphate-buffered saline, and then RIPA buffer was added and the cells were left on ice for 20 minutes. After scraping the cells, the cells were put in a centrifuge tube and centrifuged for 10 minutes at 10,000 g and 4° C. The supernatant was obtained, and 1% SDS was added, and then the reaction product was boiled at 100° C. for 5 minutes and cooled on ice. The supernatant was centrifuged again at 10,000 g and 4° C. for 10 minutes to obtain the final supernatant, and ADP-ribose was quantitatively analyzed and compared using an ELISA analysis kit (Cell Biolabs, Inc., San Diego, CA, USA).
# 5×10^5 Hep G2 cells were divided into the untreated group and 8 μM ADP-ribose-treated group and cultured in Eagle's Minimum Essential Medium supplemented with 10% fetal calf serum+100 units/ml penicillin+100 μg/ml streptomycin under conditions of 37° C. and 5% CO2 for 24 hours. The medium of the cultured cells was removed, and the supernatant prepared by treatment with RIPA buffer and 1% sodium dodecyl sulfate (SDS) was used for ELISA analysis to detect and analyze ADP-ribose.
# [1] = tested on: Colon cancer (HCT116) cells; assay: Cell death by combination treatment with anti-cancer drug (MTT); type: cell-based; settings: Homo sapiens, HCT-116; HCT116, ADP-ribose 1.6 μM/100 μl in combination with 5-FU 10 μM, 24 hours, P<0.001
# Experimental: 3×10^3 Brain cancer (U-87MG), lung cancer (H1975), pancreatic cancer (Aspc-1), liver cancer (Hep G2), breast cancer (MDA-MB-231), and colon cancer (HCT116) cells were cultured in a 96-well plate for 24 hours under conditions of 37° C. and 5% Ca2, respectively. […] After the treatment was terminated, the cells were cultured for 24 hours under conditions of 37° C. and 5% CO2 again, 10 μl of 3-(4,5-dimethylthiazol-2-yl)-2,5-diphenyltetrazolium bromide reagent was added to each well and reacted for 1 hour. After the reaction was completed, the reagent was removed, 200 μl of dimethyl sulfoxide was added to each well, and the absorbance was measured to compare the degree of cell death.
# 3×10^3 Colon cancer (HCT116) cells were cultured in a 96-well plate for 24 hours under conditions of 37° C. and 5% CO2, treated with ADP-ribose at a concentration of 1.6 μM/100 μl and 5-fluorouracil (5-FU) at 10 μM, individually or in combination, and cultured for 24 hours under conditions of 37° C. and 5% CO2 again. Then, 10 μl of 3-(4,5-dimethylthiazol-2-yl)-2,5-diphenyltetrazolium bromide reagent was added to each well and reacted for 1 hour. After the reaction was completed, the reagent was removed, 200 μl of dimethyl sulfoxide was added to each well, and the absorbance was measured to confirm cell viability.
# MDA-MB-231 cells [2] = assay: Cancer cell death verification (MTT cell viability); type: cell-based
# SNU-1 cells = assay: as above; type: cell-based; settings: SNU-1, 32 μM ADP-ribose, 24 hours
# Experimental: 3×10^3 SNU-1 or OVCAR-3 cells were cultured in a 96-well plate for 24 hours under conditions of 37° C. and 5% CO2, treated with ADP-ribose at concentrations of 32 μM, respectively, and cultured again for 24 hours under conditions of 37° C. and 5% CO2. Then, 10 μl of 3-(4,5-dimethylthiazol-2-yl)-2,5-diphenyltetrazolium bromide reagent was added to each well and reacted for 1 hour. After the reaction was completed, the reagent was removed, 200 μl of dimethyl sulfoxide was added to each well, and the absorbance was measured to confirm cell viability.
# AsPC-1 cells = assay: Change over time in intracellular ADP-ribose, radiation versus ADP-ribose treatment (ELISA); type: cell-based; settings: AsPC-1, 2 μM ADP-ribose, even after 24 hours; after radiation back to untreated level from 16 hours
# Experimental: (§1) Brain cancer (U-87MG), kidney cancer (Caki-1), pancreatic cancer (AsPC-1), or breast cancer (MDA-MB-231) cells were cultured in a 6-well plate, respectively, and the cells were divided into the untreated group, the radiation-treated group, and the ADP-ribose-treated group. Irradiation was performed using an X-Rad 320 irradiator (Precision X-ray, North Branford, CT, USA), and cancer cells were treated with a total of 1, 2, and 5 Gy at a dose rate of 300 kVp and 150 cGy/min using an X-ray beam filter composed of 12.5 mA and 2.0 mm Al, respectively. Before treatment and at 4, 8, 16, and 24 hours after treatment, the medium was removed, the cells were washed with phosphate-buffered saline, and then RIPA buffer was added and the products were left on ice for 20 minutes. After scraping the cells, the cells were put in a centrifuge tube and centrifuged for 10 minutes at 10,000 g and 4° C. The supernatant was obtained, and 1% SDS was added, and then the reaction product was boiled at 100° C. for 5 minutes and cooled on ice. The supernatant was centrifuged again at 10,000 g and 4° C. for 10 minutes to obtain the final supernatant, and ADP-ribose was quantitatively analyzed using an ELISA analysis kit (Cell Biolabs, Inc., San Diego, CA, USA). […]
# [3] = tested on: Pancreatic cancer (AsPC-1) cells; assay: Xenograft model, subcutaneous ADP-ribose, tumor volume; type: in vivo, BALB/c nude mice; settings: AsPC-1 xenograft, 3 times a week, control about 2155.8
# Experimental: Pancreatic cancer (AsPC-1) or kidney cancer (Caki-1) cells (1×10^7 cells) were inoculated into 5-week-old BALB/c nude mice on the back flank, and the mice were grown up to approximately 150 mm^3 of the tumor volume. Then, three concentrations of ADP-ribose were administered subcutaneously, intravenously, and orally 3 times a week. The tumor size was measured every 6 days using a digital caliper, and the changes in tumor volume were compared for each group.
# Pancreatic cancer (AsPC-1) cells (1×10^7) were inoculated into 5-week-old BALB/c nude mice on the back flank, and the mice were divided into four groups: the control group (Control) and groups injected subcutaneously with 2, 20, and 40 mg/kg of ADP-ribose. When the tumors were grown to a volume of approximately 150 mm^3, each concentration of ADP-ribose was subcutaneously injected 3 times a week. The tumor size was measured using a digital caliper, and the results of changes in tumor volume were compared by the group.
# [4] = tested on: Pancreatic cancer (AsPC-1) cells; settings: AsPC-1 xenograft
# Experimental: Brain (U-87MG), lung (H1975), pancreatic (AsPC-1), or liver (Hep G2) cells (1×10^7 cells) were inoculated into 5-week-old BALB/c nude mice on the back flank, respectively. Then, when tumors were grown to a volume of approximately 150 mm^3, the mice were divided into the control group (control), an anti-cancer drug alone treatment group, and a combination treatment group. […] The tumor size was measured every 6 days using a digital caliper, and the results of changes in tumor volume were compared by the group.
# The tumor size was measured using a digital caliper, and the results of changes in tumor volume were compared by the group.
# MDA-MB-231 cells [5] = assay: Change over time in intracellular ADP-ribose, radiation versus ADP-ribose treatment (ELISA); type: cell-based; settings: MDA-MB-231, 16 μM ADP-ribose, even after 24 hours; after radiation back to untreated level from 16 hours
# Experimental: as §1
# H1975 cells = assay: Cell death by combination treatment of ADP-ribose and radiation (MTT); type: cell-based; settings: H1975, 2 μM ADP-ribose in combination with 2 Gy radiation, 24 hours, P<0.001; 2 Gy alone about 75%
# Experimental: 3×10^3 H1975 cells were cultured in a 96-well plate for 24 hours under conditions of 37° C. and 5% Ca2, treated with 2 μM of ADP-ribose and 2 or 5 Gy dose of radiation individually or in combination, and cultured for 24 hours under conditions of 37° C. and 5% CO2 again. Then, 10 μl of 3-(4,5-dimethylthiazol-2-yl)-2,5-diphenyltetrazolium bromide reagent was added to each well and reacted for 1 hour. After the reaction was completed, the reagent was removed, 200 μl of dimethyl sulfoxide was added to each well, and the absorbance was measured to confirm cell viability.
# U-87MG cells = assay: Cancer cell death verification (MTT cell viability); type: cell-based
# Experimental: 3×10^3 Brain cancer (U-87MG), lung cancer (H1975), pancreatic cancer (Aspc-1), liver cancer (Hep G2), breast cancer (MDA-MB-231), colon cancer (HCT116), kidney cancer (Caki-1), gastric cancer (SNU-1) and ovarian cancer (OVCAR-3) cells were cultured in a 96-well plate under conditions of 37° C. and 5% CO2 for 24 hours, and then each cancer cell was treated with ADP-ribose at each concentration. After culturing for 24 hours under conditions of 37° C. and 5% CO2 again, 10 μl of 3-(4,5-dimethylthiazol-2-yl)-2,5-diphenyltetrazolium bromide reagent was added to each well and reacted for 1 hour. After the reaction was completed, the reagent was removed, 200 μl of dimethyl sulfoxide was added to each well, and the absorbance was measured to determine the concentration of half-lethality and maximum lethality compared to untreated cells.
# 3×10^3 U-87MG cells were cultured in a 96-well plate for 24 hours under conditions of 37° C. and 5% CO2, treated with ADP-ribose at final concentrations of 0.125, 0.25, 0.5, 1, 2, 4, 8, 16, and 32 μM, respectively, and cultured again for 24 hours under conditions of 37° C. and 5% CO2. Then, 10 μl of 3-(4,5-dimethylthiazol-2-yl)-2,5-diphenyltetrazolium bromide reagent was added to each well and reacted for 1 hour. After the reaction was completed, the reagent was removed, 200 μl of dimethyl sulfoxide was added to each well, and the absorbance was measured to confirm cell viability.
# [6] = ADP-ribose 10 mg/kg s.c. in combination with gemcitabine 50 mg/kg, P<0.001
smiles,measurement,setting,value
"Nc1ncnc2c1ncn2[C@@H]1O[C@H](COP(=O)(O)OP(=O)(O)OC[C@H]2O[C@@H](O)C(O)C2O)C(O)C1O (stereo partly drawn) [ADP-ribose, adenosine diphosphate ribose]",amount of ADP-ribose in cells compared to the control group,Hep G2 cells,remarkably increased significantly
same,viability at 1.6 µM,[1],~12%
same,IC50,"MDA-MB-231 cells [2]; Homo sapiens, MDA-MB-231, 24 h, read-out: half-lethal dose (concentration at which about half of the cells were killed)",~16 µM
same,maximum lethal dose (concentration at which almost all cells were killed),"MDA-MB-231 cells [2]; MDA-MB-231, 24 hours, MTT",32 µM
same,cancer cell growth under a microscope,"MDA-MB-231 cells [2]; MDA-MB-231, ADP-ribose treated vs control, FIG. 6A",inhibited from growing and killed
same,cell death compared to the control group,SNU-1 cells,killed significantly
same,amount of ADP-ribose in the cells over time compared to the control group,AsPC-1 cells,maintained a significant (P<0.001) increase
same,final tumor volume,[3]; 2 mg/kg subcutaneous,1015.8 mm^3
same,final tumor volume,[3]; 20 mg/kg subcutaneous,496.6 mm^3
same,final tumor volume,[3]; 40 mg/kg subcutaneous,336.2 mm^3
same,reduction of tumor volume compared to the control group,[4]; [6],about 80%
same,reduction of tumor volume compared to the group treated with gemcitabine alone,[4]; [6],about 76%
same,final tumor volume,"[4]; ADP-ribose 10 mg/kg subcutaneous 3 times a week in combination with gemcitabine 50 mg/kg, control about 2174.3",about 444.3 mm^3
same,amount of ADP-ribose in the cells over time compared to the control group,MDA-MB-231 cells [5],maintained a significant (P<0.001) increase
same,survival rate of cancer cells,H1975 cells,about 8%
same,IC50,"U-87MG cells; Homo sapiens, U-87 MG, 24 h, read-out: half-lethal dose (concentration at which about half of the cells were killed)",~8 µM
same,maximum lethal dose (concentration at which almost all cells were killed),"U-87MG cells; U-87MG, 24 hours, MTT",32 µM
same,cancer cell growth under a microscope,"U-87MG cells; U-87MG, ADP-ribose treated vs control, FIG. 2A",inhibited from growing and killed

# — US20230372382A1, “USE OF ADENOSINE DIPHOSPHATE RIBOSE FOR ADJUVANT THERAPY WITH RADIATION AND/OR ANTI-CANCER TREATMENT” (PearlsInMires Co., Ltd., priority 2021, published 2023)
